Where a SMILES comes first, the peptide text is derived from it. Bridges are numbered along the chain shown (N, C = ends).
Columns and labels:
[1] = target: ANF Rezeptor (Membranpräparation von Rindernebennieren); test: Binding test: displacement of radiolabelled ANF from its receptor (membrane preparation of bovine adrenal glands); parameters: species or system Rind; settings: inhibition of ¹²⁵I-ANF (18,2 pM) binding, 24 h at 4°C; read-out: IC₅₀
Procedure: In einem Bindungstest nach Bürgisser et al. [Biochem. Biophys. Res. Comm. 133, 1201 (1985)] wurde die Verdrängung von radioaktiv-markiertem ANF von dessen Rezeptor durch den ANF-Antagonisten gemessen. Als Rezeptorpräparation wurde eine Membranpräparation von Rindernebennieren verwendet. Zu 100 µl dieser Präparation in 50 mM Tris/HCl, 500 mM MgCl₂, 1 mM EDTA. 0,5% Rinderserumalbumin und 1 mM o-Phenanthrolin, pH 7,6, wurden ¹²⁵I-ANF (20'000 cpm. 18,2 pM) in 145 µl dieses Puffers und der Ligand in 5 µl Dimethylsulfoxid gegeben. Diese Mischung wurde 24 Stunden bei 4°C inkubiert und gebundenes von freiem ANF durch schnelle Filtration über Whatman GF/C Glasfaserfilter abgetrennt. Nach dreimaligem Waschen der Filter mit obigem Puffer (3 x 4 ml) wurden die Filter zerschnitten und deren Radioaktivität im Gamma-Zähler gemessen. Die Inhibition der Bindung wurde quantitativ mit der IC₅₀ erfasst, worunter diejenige Konzentration an entsprechendem Liganden zu verstehen ist, bei der die Bindung von ¹²⁵I-ANF halbmaximal gehemmt wird. Tabelle

[2] = test system: spontanhypertensive Ratten (SHR); test: In vivo blood pressure in conscious SHR under ANF infusion; settings: bolus 1 mg/kg after ANF infusion 2.5 µg/kg/min
Procedure: (§1) Für die in vivo Versuche wurden 20 Wochen alte spontanhypertensive Ratten (SHR) oder normotensive pathogen-freie (SPF) Ratten verwendet. In wache SHR wurde 2.5 µg/kg/min ANF infundiert, was den Blutdruck um 45 mm Hg senkte. Eine anschliessende Bolusgabe von 1 mg/kg ANF-Antagonist erhöhte den Blutduck wiederum auf den Ausgangswert von 220 mm Hg. Anästhesierten SPF-Ratten ohne zentrale Reflexe ("pithed rats") wurde Angiotensin II (0,15 µg/kg/min) infundiert, um den Blutdruck auf 100-110 mm Hg anzuheben. Dann wurde ein Bolus von 10 µg/kg ANF gegeben. was den Blutdruck um 20 mm Hg senkte. […] Diese Versuche zeigen, dass der Blutdruckanstieg unter dem ANF-Antagonisten nicht auf eine Aktivierung von symphatischen Reflexen, sondern auf die Wirkung eines ANF-Antagonisten zurückzuführen ist.

[3] = test system: SPF-Ratten ohne zentrale Reflexe ("pithed rats"); test: In vivo blood pressure in anaesthetised pithed SPF rats under angiotensin II infusion; settings: Angiotensin II 0,15 µg/kg/min, 1 mg/kg i.v. after bolus of 10 µg/kg ANF
Procedure: as §1

Row | IC50 [1] [nM] | Structure (SMILES) | Blutdruck nach Bolusgabe (erhöht auf den Ausgangswert) [2] [mm Hg] | Blutdruck nach intravenöser Gabe [3]
1 | 860 | CC[C@H](C)[C@@H]1NC(=O)[C@H](Cc2ccccc2)NC(=O)CNC(=O)C[C@@H](C(=O)N[C@H](C(=O)N[C@@H](Cc2ccccc2)C(=O)NCC(=O)N[C@@H](Cc2c[nH]cn2)C(=O)N[C@@H](Cc2ccc(O)cc2)C(=O)N[C@@H](CO)C(=O)NCC(=O)N[C@@H](CC(=O)O)C(=O)N[C@@H](Cc2ccccc2)C(=O)O)[C@@H](C)CC)NC(=O)[C@H](CC(N)=O)NC(=O)CNC(=O)[C@H](Cc2c[nH]c3ccccc23)NC(=O)CNC1=O [ANF-Antagonist] (GFIGWGNDIFGHYSGDF-OH; lactam N-8; C-terminus assumed) | 220 | erhöhte den Blutdruck wiederum auf den Ausgangswert
2 | 2500 | CC[C@H](C)[C@@H]1NC(=O)[C@H](Cc2ccccc2)NC(=O)CNC(=O)C[C@@H](C(=O)N[C@H](C(=O)N[C@@H](Cc2ccccc2)C(=O)NCC(=O)N[C@@H](Cc2c[nH]cn2)C(=O)N[C@@H](Cc2ccc(O)cc2)C(=O)N[C@@H](CO)C(=O)NCC(=O)N[C@@H](CC(=O)OC)C(=O)N[C@@H](Cc2ccccc2)C(=O)OC)[C@@H](C)CC)NC(=O)[C@H](CC(N)=O)NC(=O)CNC(=O)[C@H](Cc2c[nH]c3ccccc23)NC(=O)CNC1=O [Dimethylester] (GFIGWGNDIFGHYSGD(OMe)F-OMe; lactam N-8) |  | 

Source: patent publication EP0415219A1, “ANF-Antagonist” (F. HOFFMANN-LA ROCHE AG, priority 1989, dated 1991)
